From a compilation of properties of binary mixtures (doi:10.1021/je5008857)

Test: xn = mol fraction of the nth substance listed
Details: 101 kPa

## CC(=O)[O-].[NH4+] + CC(=O)[O-].CC[n+]1ccn(C)c1
298.15 K, x1 = 0.0503
  electrical conductivity: 0.255 S/m
  viscosity: 153 mPa·s
298.15 K, x1 = 0.0999
  electrical conductivity: 0.226 S/m
  viscosity: 186 mPa·s
298.15 K, x1 = 0.1703
  electrical conductivity: 0.181 S/m
  viscosity: 261 mPa·s
298.15 K, x1 = 0.2498
  electrical conductivity: 0.146 S/m
  viscosity: 389 mPa·s
298.15 K, x1 = 0.328
  electrical conductivity: 0.114 S/m
  viscosity: 572 mPa·s
303.15 K, x1 = 0.0503
  electrical conductivity: 0.337 S/m
  viscosity: 111.7 mPa·s
303.15 K, x1 = 0.0999
  electrical conductivity: 0.299 S/m
  viscosity: 134.7 mPa·s
303.15 K, x1 = 0.1703
  electrical conductivity: 0.242 S/m
  viscosity: 186 mPa·s
303.15 K, x1 = 0.2498
  electrical conductivity: 0.199 S/m
  viscosity: 271 mPa·s
303.15 K, x1 = 0.328
  electrical conductivity: 0.158 S/m
  viscosity: 390 mPa·s
303.15 K, x1 = 0.4491
  electrical conductivity: 0.106 S/m
  viscosity: 673 mPa·s
308.15 K, x1 = 0.0503
  electrical conductivity: 0.431 S/m
  viscosity: 83.9 mPa·s
308.15 K, x1 = 0.0999
  electrical conductivity: 0.389 S/m
  viscosity: 100.1 mPa·s
308.15 K, x1 = 0.1703
  electrical conductivity: 0.319 S/m
  viscosity: 135.5 mPa·s
308.15 K, x1 = 0.2498
  electrical conductivity: 0.266 S/m
  viscosity: 194 mPa·s
313.15 K, x1 = 0.0503
  electrical conductivity: 0.542 S/m
  viscosity: 64.6 mPa·s
313.15 K, x1 = 0.2498
  electrical conductivity: 0.349 S/m
  viscosity: 142.3 mPa·s
313.15 K, x1 = 0.4491
  electrical conductivity: 0.201 S/m
  viscosity: 321 mPa·s
318.15 K, x1 = 0.0503
  electrical conductivity: 0.671 S/m
  viscosity: 50.7 mPa·s
318.15 K, x1 = 0.0999
  electrical conductivity: 0.617 S/m
  viscosity: 59.1 mPa·s
318.15 K, x1 = 0.1703
  electrical conductivity: 0.519 S/m
  viscosity: 77.2 mPa·s
318.15 K, x1 = 0.4491
  electrical conductivity: 0.267 S/m
  viscosity: 230 mPa·s
323.15 K, x1 = 0.0503
  electrical conductivity: 0.862 S/m
  viscosity: 40.5 mPa·s
323.15 K, x1 = 0.0999
  electrical conductivity: 0.796 S/m
  viscosity: 46.6 mPa·s
323.15 K, x1 = 0.1703
  electrical conductivity: 0.641 S/m
  viscosity: 59.9 mPa·s
323.15 K, x1 = 0.2498
  electrical conductivity: 0.562 S/m
  viscosity: 81.3 mPa·s
323.15 K, x1 = 0.328
  electrical conductivity: 0.471 S/m
  viscosity: 108.4 mPa·s
323.15 K, x1 = 0.4491
  electrical conductivity: 0.347 S/m
  viscosity: 169 mPa·s

## CC(=O)[O-].[Na+] + CC(=O)[O-].CC[n+]1ccn(C)c1
298.15 K, x1 = 0.0501
  electrical conductivity: 0.232 S/m
  viscosity: 160 mPa·s
298.15 K, x1 = 0.1001
  electrical conductivity: 0.189 S/m
  viscosity: 205 mPa·s
298.15 K, x1 = 0.1605
  electrical conductivity: 0.152 S/m
  viscosity: 300 mPa·s
303.15 K, x1 = 0.0501
  electrical conductivity: 0.305 S/m
  viscosity: 117.1 mPa·s
303.15 K, x1 = 0.1605
  electrical conductivity: 0.207 S/m
  viscosity: 210 mPa·s
308.15 K, x1 = 0.0501
  electrical conductivity: 0.392 S/m
  viscosity: 88 mPa·s
308.15 K, x1 = 0.1001
  electrical conductivity: 0.327 S/m
  viscosity: 109.3 mPa·s
308.15 K, x1 = 0.1605
  electrical conductivity: 0.272 S/m
  viscosity: 153 mPa·s
313.15 K, x1 = 0.0501
  electrical conductivity: 0.491 S/m
  viscosity: 67.7 mPa·s
313.15 K, x1 = 0.1001
  electrical conductivity: 0.416 S/m
  viscosity: 83.1 mPa·s
313.15 K, x1 = 0.1605
  electrical conductivity: 0.352 S/m
  viscosity: 113.7 mPa·s
318.15 K, x1 = 0.0501
  electrical conductivity: 0.606 S/m
  viscosity: 53.2 mPa·s
318.15 K, x1 = 0.1001
  electrical conductivity: 0.518 S/m
  viscosity: 64.7 mPa·s
318.15 K, x1 = 0.1605
  electrical conductivity: 0.442 S/m
  viscosity: 86.9 mPa·s
323.15 K, x1 = 0.0501
  electrical conductivity: 0.734 S/m
  viscosity: 42.7 mPa·s
323.15 K, x1 = 0.1001
  electrical conductivity: 0.632 S/m
  viscosity: 51.3 mPa·s
323.15 K, x1 = 0.1605
  electrical conductivity: 0.537 S/m
  viscosity: 67.9 mPa·s

## CCS(=O)(=O)[O-].[NH4+] + CC(=O)[O-].CC[n+]1ccn(C)c1
298.15 K, x1 = 0.05
  electrical conductivity: 0.247 S/m
  viscosity: 157 mPa·s
298.15 K, x1 = 0.0999
  electrical conductivity: 0.2 S/m
  viscosity: 210 mPa·s
298.15 K, x1 = 0.1701
  electrical conductivity: 0.164 S/m
  viscosity: 299 mPa·s
303.15 K, x1 = 0.05
  electrical conductivity: 0.323 S/m
  viscosity: 115 mPa·s
303.15 K, x1 = 0.0999
  electrical conductivity: 0.266 S/m
  viscosity: 151 mPa·s
303.15 K, x1 = 0.1701
  electrical conductivity: 0.222 S/m
  viscosity: 210 mPa·s
308.15 K, x1 = 0.05
  electrical conductivity: 0.415 S/m
  viscosity: 86.3 mPa·s
308.15 K, x1 = 0.0999
  electrical conductivity: 0.346 S/m
  viscosity: 111.2 mPa·s
308.15 K, x1 = 0.1701
  electrical conductivity: 0.293 S/m
  viscosity: 151 mPa·s
313.15 K, x1 = 0.05
  electrical conductivity: 0.522 S/m
  viscosity: 66.2 mPa·s
313.15 K, x1 = 0.0999
  electrical conductivity: 0.442 S/m
  viscosity: 83.9 mPa·s
318.15 K, x1 = 0.0999
  electrical conductivity: 0.553 S/m
  viscosity: 64.6 mPa·s
318.15 K, x1 = 0.1701
  electrical conductivity: 0.481 S/m
  viscosity: 84.7 mPa·s
323.15 K, x1 = 0.05
  electrical conductivity: 0.775 S/m
  viscosity: 41.3 mPa·s

## N#C[S-].[Na+] + CC(=O)[O-].CC[n+]1ccn(C)c1
298.15 K, x1 = 0.0502
  electrical conductivity: 0.242 S/m
  viscosity: 150 mPa·s
303.15 K, x1 = 0.0502
  electrical conductivity: 0.316 S/m
  viscosity: 110.4 mPa·s
308.15 K, x1 = 0.0502
  electrical conductivity: 0.404 S/m
  viscosity: 83.3 mPa·s
313.15 K, x1 = 0.0502
  electrical conductivity: 0.504 S/m
  viscosity: 64.4 mPa·s
318.15 K, x1 = 0.0502
  electrical conductivity: 0.618 S/m
  viscosity: 50.9 mPa·s
323.15 K, x1 = 0.0502
  electrical conductivity: 0.734 S/m
  viscosity: 40.9 mPa·s

## [Cl-].[NH4+] + CC(=O)[O-].CC[n+]1ccn(C)c1
298.15 K, x1 = 0.0999
  electrical conductivity: 0.19 S/m
  viscosity: 236 mPa·s
298.15 K, x1 = 0.1702
  electrical conductivity: 0.139 S/m
  viscosity: 405 mPa·s
298.15 K, x1 = 0.25
  electrical conductivity: 0.0911 S/m
  viscosity: 775 mPa·s
298.15 K, x1 = 0.3297
  electrical conductivity: 0.0567 S/m
  viscosity: 1608 mPa·s
303.15 K, x1 = 0.0999
  electrical conductivity: 0.255 S/m
  viscosity: 168 mPa·s
303.15 K, x1 = 0.1702
  electrical conductivity: 0.192 S/m
  viscosity: 278 mPa·s
303.15 K, x1 = 0.25
  electrical conductivity: 0.13 S/m
  viscosity: 511 mPa·s
303.15 K, x1 = 0.3297
  electrical conductivity: 0.0843 S/m
  viscosity: 1040.8 mPa·s
308.15 K, x1 = 0.0505
  electrical conductivity: 0.398 S/m
  viscosity: 92.9 mPa·s
308.15 K, x1 = 0.0999
  electrical conductivity: 0.333 S/m
  viscosity: 122.6 mPa·s
308.15 K, x1 = 0.1702
  electrical conductivity: 0.259 S/m
  viscosity: 196 mPa·s
308.15 K, x1 = 0.25
  electrical conductivity: 0.179 S/m
  viscosity: 348 mPa·s
308.15 K, x1 = 0.3297
  electrical conductivity: 0.121 S/m
  viscosity: 693 mPa·s
313.15 K, x1 = 0.0505
  electrical conductivity: 0.501 S/m
  viscosity: 71 mPa·s
313.15 K, x1 = 0.25
  electrical conductivity: 0.242 S/m
  viscosity: 245 mPa·s
313.15 K, x1 = 0.3297
  electrical conductivity: 0.169 S/m
  viscosity: 478 mPa·s
318.15 K, x1 = 0.0999
  electrical conductivity: 0.537 S/m
  viscosity: 70.2 mPa·s
318.15 K, x1 = 0.1702
  electrical conductivity: 0.439 S/m
  viscosity: 106.2 mPa·s
318.15 K, x1 = 0.25
  electrical conductivity: 0.32 S/m
  viscosity: 177 mPa·s
318.15 K, x1 = 0.3297
  electrical conductivity: 0.23 S/m
  viscosity: 339 mPa·s
323.15 K, x1 = 0.0999
  electrical conductivity: 0.661 S/m
  viscosity: 54.7 mPa·s
323.15 K, x1 = 0.1702
  electrical conductivity: 0.552 S/m
  viscosity: 80.6 mPa·s
323.15 K, x1 = 0.25
  electrical conductivity: 0.414 S/m
  viscosity: 130.5 mPa·s
323.15 K, x1 = 0.3297
  electrical conductivity: 0.305 S/m
  viscosity: 246 mPa·s

## CC(=O)[O-].CC[n+]1ccn(C)c1 + CC(=O)[O-].[NH4+]
298.15 K, x2 = 0
  electrical conductivity: 0.287 S/m
  viscosity: 126.3 mPa·s
303.15 K, x2 = 0
  electrical conductivity: 0.374 S/m
  viscosity: 93.6 mPa·s
308.15 K, x2 = 0
  electrical conductivity: 0.473 S/m
  viscosity: 71.3 mPa·s
313.15 K, x2 = 0
  electrical conductivity: 0.587 S/m
  viscosity: 55.5 mPa·s
318.15 K, x2 = 0
  electrical conductivity: 0.76 S/m
  viscosity: 44.2 mPa·s

## CC(=O)[O-].CC[n+]1ccn(C)c1 + CC(=O)[O-].[Na+]
298.15 K, x2 = 0
  electrical conductivity: 0.287 S/m
  viscosity: 126.3 mPa·s
303.15 K, x2 = 0
  electrical conductivity: 0.374 S/m
  viscosity: 93.6 mPa·s
308.15 K, x2 = 0
  electrical conductivity: 0.473 S/m
  viscosity: 71.3 mPa·s
313.15 K, x2 = 0
  electrical conductivity: 0.587 S/m
  viscosity: 55.5 mPa·s
318.15 K, x2 = 0
  electrical conductivity: 0.76 S/m
  viscosity: 44.2 mPa·s
323.15 K, x2 = 0
  electrical conductivity: 0.918 S/m
  viscosity: 35.7 mPa·s

## CC(=O)[O-].CC[n+]1ccn(C)c1 + CCS(=O)(=O)[O-].[NH4+]
298.15 K, x2 = 0
  electrical conductivity: 0.287 S/m
  viscosity: 126.3 mPa·s
308.15 K, x2 = 0
  electrical conductivity: 0.473 S/m
  viscosity: 71.3 mPa·s
313.15 K, x2 = 0
  electrical conductivity: 0.587 S/m
  viscosity: 55.5 mPa·s
323.15 K, x2 = 0
  electrical conductivity: 0.918 S/m
  viscosity: 35.7 mPa·s

## CC(=O)[O-].CC[n+]1ccn(C)c1 + N#C[S-].[Na+]
298.15 K, x2 = 0
  electrical conductivity: 0.287 S/m
  viscosity: 126.3 mPa·s
308.15 K, x2 = 0
  electrical conductivity: 0.473 S/m
  viscosity: 71.3 mPa·s
318.15 K, x2 = 0
  electrical conductivity: 0.76 S/m
  viscosity: 44.2 mPa·s
323.15 K, x2 = 0
  electrical conductivity: 0.918 S/m
  viscosity: 35.7 mPa·s

## CC(=O)[O-].CC[n+]1ccn(C)c1 + [Cl-].[NH4+]
298.15 K, x2 = 0
  electrical conductivity: 0.287 S/m
  viscosity: 126.3 mPa·s
303.15 K, x2 = 0
  electrical conductivity: 0.374 S/m
  viscosity: 93.6 mPa·s
313.15 K, x2 = 0
  electrical conductivity: 0.587 S/m
  viscosity: 55.5 mPa·s
323.15 K, x2 = 0
  electrical conductivity: 0.918 S/m
  viscosity: 35.7 mPa·s
